Test results published in US20260209249A1, “NOVEL TRICYCLIC COMPOUND AS KRAS G12D INHIBITOR, AND USE THEREOF” (SK Biopharmaceuticals Co., priority 2022, published 2026).
pIC50: −log10 of the molar value.

What was measured:
[1] = target: T1, GDP-KRAS G12D mutant protein (Homo sapiens, UniProt P01116, G12D); experiment: Differential scanning fluorimetry (DSF) binding affinity to GDP-KRAS G12D mutant protein; details: DSF thermal shift, 10 μM compound, 4 μg KRAS protein
T1 construct: purchased Daegu Gyeongbuk Medical Innovation Foundation (DGMIF), made to order
How it was run: (§1)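 Thermal shift ΔTm was measured at 10 μM compound over a 25–99 °C ramp (0.05 °C/s), read at 580 nm ex/623 nm em with SYPRO Orange (2×). The protein (4 μg) was preincubated with compound for 30 min at room temperature, in 50 mM HEPES pH 7.5 for GppNHp-KRAS G12D or in kit buffer for GDP-KRAS G12D.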

[2] = target: T2, GppNHp-KRAS G12D mutant protein (Homo sapiens, UniProt P01116, G12D); experiment: Differential scanning fluorimetry (DSF) binding affinity to GppNHp-KRAS G12D mutant protein; details: DSF thermal shift, 10 μM compound, 4 μg KRAS protein, 50 mM HEPES (pH 7.5)
T2 construct: purchased Daegu Gyeongbuk Medical Innovation Foundation (DGMIF), made to order
How it was run: as §1

[3] = test system: ERK phosphorylation (pERK) induced by KRAS G12D mutation; experiment: Inhibitory activity against ERK phosphorylation (pERK) induced by KRAS G12D mutation, immunofluorescence assay in AsPC-1 cells; format: cell-based; details: Homo sapiens, ASPC1, 3 h drug treatment, pERK (Thr202/Tyr204) signal normalized to DAPI
Text: Test Example 2: Measurement of Inhibitory Activity Against ERK Phosphorylation (pERK) Induced by KRAS G12D Mutation (Immunofluorescence Assay)
Immunofluorescence is a method used to detect specific substances within cells or tissues through antigen-antibody interactions, and allows for the identification of the presence or absence of specific proteins by using antibodies labeled with various fluorescent dyes. After a primary antibody that recognizes a specific protein selectively binds to the epitope, a fluorescent antibody (secondary antibody) is bound to the primary antibody.
It was confirmed as follows that the compounds according to an embodiment of the present application inhibit phosphorylation of extracellular signal-regulated kinases (Phospho-ERK, pERK) induced by KRAS G12D mutation.
AsPC-1 cells were seeded at a density of 10,000 cells/well in RPMI-1640 medium containing 10% FBS and 1% Penicillin-Streptomycin in 384-well plates (Perkinelmer, #6057300) and allowed to attach for 16 h. After the cells attached to the plate, the cells were treated with drugs at a maximum concentration of 10 μM with a 3-fold serial dilution. After 3 h of drug treatment, the medium was removed and the cells were treated with 50 μL of 4% formaldehyde (Biosesang, #PC2031-050-00) for 20 min and washed three times with 50 μL of phosphate buffered saline (PBS).
50 μL of PBS containing 0.3% Triton X-100 (Sigma, #T8787-250 mL) was added and reacted for 20 minutes to allow antibody penetration into cells, and then the plate was washed three times with 50 μL of PBS. To block nonspecific binding of antibodies to the plate, 50 μL of PBS containing 2% BSA (sigma, #A7906-500G) and 0.01% Tween-20 (Sigma, #P1379-500 mL) (hereinafter referred to as PBS-T) was added, and reacted at room temperature for 2 hours.
To detect pERK, the primary antibody (cell signaling, #9101) was diluted 1:500 in PBS-T containing 2% BSA, 50 μL was added, and the plate was stored in a refrigerator at 4° C. for 16 hours to react, followed by washing three times with 50 μL of PBS-T. To visualize the primary antibody, the secondary antibody, i.e., anti-rabbit-Alexa Fluor 488 (ThermoFisher, #A11008), was diluted 1:1000 in PBS-T containing 2% BSA, 50 μL was added, and after reaction at room temperature for 1 hour, the plate was washed three times with 50 μL of PBS-T. Next, to visualize the nuclei of cells, DAPI (Thermofisher, #62248, 1 mg/mL) was diluted 1:1000 in PBS-T, 50 μL each was added, reacted at room temperature for 10 minutes, and washed three times with 50 μL of PBS-T. 50 μL of PBS-T was added to each well, and the plate was read for fluorescence value using HCS equipment (MOLECULAR DEVICES/ImageXpress Micro).
Data analysis was performed by normalizing the pERK (Thr202/Tyr204) signal to the DAPI signal and calculating the percentage relative to the DMSO as a control. The IC50 value was determined by fitting a four-parameter dose-response curve using the GraphPad Prism software (version 8.4.3), and interpolating the concentration at which 50% inhibition occurred. The results of calculating the inhibitory efficacy of the compounds according to one embodiment of the present application against KRAS G12D mutation-induced pERK activity are shown in Table 3.

Q: Which “GDP-KRAS G12D (ΔTmD, ° C.)” value [1] does the source give for `CCc1c(F)ccc2cc(O)cc(-c3cc4nc(OC[C@@]56CCCN5C[C@H](F)C6)nc(N5C[C@H]6CC[C@@H](C5)N6)c4c4cn(C)nc34)c12` [Example 83, 4-(9-((1R,5S)-3,8-diazabicyclo[3.2.1]octan-3-yl)-7-(((2R,7aS)-2-fluorotetrahydro-1H-pyrrolizin-7a(5H)-yl)methoxy)-2-methyl-2H-pyrazolo[4,3-f]quinazolin-4-yl)-5-ethyl-6-fluoronaphthalen-2-ol] here?
A: The value was 10.06 °C.

Q: And the “GppNHp-KRAS G12D (ΔTmD, ° C.)” value [2]?
A: Its value is 5.76 °C.

Q: What about the pIC50 [3] of the same compound?
A: The pIC50 was 7.00.

Q: `Cn1cc2c(n1)c(-c1cc(O)cc3ccc(F)c(F)c13)cc1nc(OC[C@@]34CCCN3C[C@H](F)C4)nc(N3C[C@H]4CC[C@@H](C3)N4)c12` [Example 70, 4-(9-((1R,5S)-3,8-diazabicyclo[3.2.1]octan-3-yl)-7-(((2R,7aS)-2-fluorotetrahydro-1H-pyrrolizin-7a(5H)-yl)methoxy)-2-methyl-2H-pyrazolo[4,3-f]quinazolin-4-yl)-5,6-difluoronaphthalen-2-ol] was tested. Which “GDP-KRAS G12D (ΔTmD, ° C.)” value [1] did it give?
A: The value was 6.34 °C.

Q: And the “GppNHp-KRAS G12D (ΔTmD, ° C.)” value [2]?
A: The value was 3.38 °C.

Q: And the pIC50 [3]?
A: The pIC50 was 6.13.

Q: For `CN(C)C1(CNc2nc(OC[C@@]34CCCN3C[C@H](F)C4)nc3cc(-c4cc(O)cc5ccc(F)c(F)c45)c4nccn4c23)CCC1` [Example 5, 4-(1-(((1-(dimethylamino)cyclobutyl)methyl)amino)-3-(((2R,7aS)-2-fluorotetrahydro-1H-pyrrolizin-7a(5H)-yl)methoxy)imidazo[1′,2′:1,6]pyrido[3,2-d]pyrimidin-6-yl)-5,6-difluoronaphthalen-2-ol], which “GDP-KRAS G12D (ΔTmD, ° C.)” value [1] is on record?
A: Its value is 4.27 °C.

Q: And the “GppNHp-KRAS G12D (ΔTmD, ° C.)” value [2]?
A: Its value is 1.60 °C.

Q: And the pIC50 [3]?
A: Its pIC50 is 6.02.

Q: For `C#Cc1c(F)ccc2cc(O)cc(-c3cc4nc(OCC5(CN6C[C@H]7C[C@@H]6CO7)CC5)nc(N5C[C@H]6CC[C@@H](C5)N6)c4n4ccnc34)c12` [Example 10, 4-(3-((1-(((1 R,4R)-2-oxa-5-azabicyclo[2.2.1]heptan-5-yl)methyl)cyclopropyl)methoxy)-1-((1 R,5S)-3,8-diazabicyclo[3.2.1]octan-3-yl)imidazo[1′,2′:1,6]pyrido[3,2-d]pyrimidin-6-yl)-5-ethynyl-6-fluoronaphthalen-2-ol], which “GDP-KRAS G12D (ΔTmD, ° C.)” value [1] is on record?
A: Its value is 9.00 °C.

Q: And the “GppNHp-KRAS G12D (ΔTmD, ° C.)” value [2]?
A: Its value is 2.79 °C.

Q: And the pIC50 [3]?
A: The pIC50 was 5.68.

Q: Which results are given for `Cc1cc2c(o1)c(-c1cc(O)cc3ccccc13)c(F)c1nc(OC[C@@]34CCCN3C[C@H](F)C4)nc(N3C[C@H]4CC[C@@H](C3)N4)c12` [Example 43, 4-(1-((1R,5S)-3,8-diazabicyclo[3.2.1]octan-3-yl)-5-fluoro-3-(((2R,7aS)-2-fluorotetrahydro-1H-pyrrolizin-7a(5H)-yl)methoxy)-8-methylfuro[3,2-f]quinazolin-6-yl)naphthalen-2-ol]?
A: GDP-KRAS G12D (ΔTmD, ° C.) [1]: 9.30 °C; GppNHp-KRAS G12D (ΔTmD, ° C.) [2]: 4.27 °C; pIC50 [3]: 6.02

Q: For `C#Cc1c(F)ccc2cc(O)cc(-c3c(F)c4nc(OC[C@@]56CCCN5C/C(=C\F)C6)nc(N5C[C@H]6CC[C@@H](C5)N6)c4c4cc(C)oc34)c12` [Example 64, 4-(1-((1R,5S)-3,8-diazabicyclo[3.2.1]octan-3-yl)-5-fluoro-3-(((S,Z)-2-(fluoromethylene)tetrahydro-1H-pyrrolizin-7a(5H)-yl)methoxy)-8-methylfuro[3,2-n]quinazolin-6-yl)-5-ethynyl-6-fluoronaphthalen-2-ol], which “GDP-KRAS G12D (ΔTmD, ° C.)” value [1] is on record?
A: The value was 15.24 °C.

Q: What about the “GppNHp-KRAS G12D (ΔTmD, ° C.)” value [2] of the same compound?
A: Its value is 11.39 °C.

Q: And the pIC50 [3]?
A: The pIC50 was 7.21.

Q: Which “GDP-KRAS G12D (ΔTmD, ° C.)” value [1] does the source give for `Cc1cc2c(o1)c(-c1ccc(F)c3sc(N)c(C#N)c13)c(F)c1nc(OC[C@@]34CCCN3C[C@H](F)C4)nc(N3C[C@H]4CC[C@@H](C3)N4)c12` [Example 62, 4-(1-((1R,5S)-3,8-diazabicyclo[3.2.1]octan-3-yl)-5-fluoro-3-(((2R,7aS)-2-fluorotetrahydro-1H-pyrrolizin-7a(5H)-yl)methoxy)-8-methylfuro[3,2-f]quinazolin-6-yl)-2-amino-7-fluorobenzo[b]thiophene-3-carbonitrile] here?
A: Its value is 9.01 °C.

Q: What about the “GppNHp-KRAS G12D (ΔTmD, ° C.)” value [2] of the same compound?
A: The value was 8.57 °C.

Q: And the pIC50 [3]?
A: The pIC50 was 6.20.

Q: How did the “GDP-KRAS G12D (ΔTmD, ° C.)” value [1] turn out when `Cc1cc2c(o1)c(-c1ccc(F)c3sc(N)c(C#N)c13)c(F)c1nc(OC[C@@]34CCCN3C/C(=C\F)C4)nc(N3C[C@H]4CC[C@@H](C3)N4)c12` [Example 63, 4-(1-((1R,5S)-3,8-diazabicyclo[3.2.1]octan-3-yl)-5-fluoro-3-(((S,Z)-2-(fluoromethylene)tetrahydro-1H-pyrrolizin-7a(5H)-yl)methoxy)-8-methylfuro[3,2-f]quinazolin-6-yl)-2-amino-7-fluorobenzo[b]thiophene-3-carbonitrile] was run?
A: The value was 8.72 °C.

Q: And the “GppNHp-KRAS G12D (ΔTmD, ° C.)” value [2]?
A: Its value is 9.02 °C.

Q: And the pIC50 [3]?
A: Its pIC50 is 6.27.

Q: `C#Cc1c(F)ccc2cc(O)cc(-c3cc4nc(OCC5(CN6CCCC6)CC5)nc(N5[C@@H]6CC[C@H]5CNC6)c4n4ccnc34)c12` [Example 17, 4-(1-((1R,5S)-3,8-diazabicyclo[3.2.1]octan-8-yl)-3-((1-(pyrrolidin-1-ylmethyl)cyclopropyl)methoxy)imidazo[1′,2′:1,6]pyrido[3,2-d]pyrimidin-6-yl)-5-ethynyl-6-fluoronaphthalen-2-ol] was tested. Which “GDP-KRAS G12D (ΔTmD, ° C.)” value [1] did it give?
A: Its value is 9.45 °C.

Q: And the “GppNHp-KRAS G12D (ΔTmD, ° C.)” value [2]?
A: The value was 4.71 °C.

Q: What about the pIC50 [3] of the same compound?
A: Its pIC50 is 5.93.

Q: `Oc1cc(-c2cc3nc(OC[C@@]45CCCN4C[C@H](F)C5)nc(N4C[C@H]5CC[C@@H](C4)N5)c3n3ccnc23)c2c(F)c(F)ccc2c1` [Example 3, 4-(1-((1 R,5S)-3,8-diazabicyclo[3.2.1]octan-3-yl)-3-(((2R,7aS)-2-fluorotetrahydro-1H-pyrrolizin-7a(5H)-yl)methoxy)imidazo[1′,2′:1,6]pyrido[3,2-d]pyrimidin-6-yl)-5,6-difluoronaphthalen-2-ol] was tested. Which “GDP-KRAS G12D (ΔTmD, ° C.)” value [1] did it give?
A: The value was 6.05 °C.

Q: And the “GppNHp-KRAS G12D (ΔTmD, ° C.)” value [2]?
A: Its value is 1.90 °C.

Q: And the pIC50 [3]?
A: The pIC50 was 5.85.

Q: How did the “GDP-KRAS G12D (ΔTmD, ° C.)” value [1] turn out when `C#Cc1c(F)ccc2cc(N)cc(-c3cc4nc(OC[C@@]56CCCN5C[C@H](F)C6)nc(N5C[C@H]6CC[C@@H](C5)N6)c4c4cn(C)nc34)c12` [Example 71, 4-(9-((1R,5S)-3,8-diazabicyclo[3.2.1]octan-3-yl)-7-(((2R,7aS)-2-fluorotetrahydro-1H-pyrrolizin-7a(5H)-yl)methoxy)-2-methyl-2H-pyrazolo[4,3-f]quinazolin-4-yl)-5-ethynyl-6-fluoronaphthalen-2-amine] was run?
A: The value was 8.14 °C.

Q: What about the “GppNHp-KRAS G12D (ΔTmD, ° C.)” value [2] of the same compound?
A: Its value is 4.88 °C.

Q: And the pIC50 [3]?
A: The pIC50 was 6.29.

Q: `C#Cc1c(F)ccc2cc(O)cc(-c3cc4nc(OC[C@]56CCCN5CC(=C)C6)nc(N5[C@@H]6CC[C@H]5CNC6)c4n4ccnc34)c12` [Example 21, 4-(1-((1R,5S)-3,8-diazabicyclo[3.2.1]octan-8-yl)-3-(((R)-2-methylenetetrahydro-1H-pyrrolizin-7a(5H)-yl)methoxy)imidazo[1′,2′:1,6]pyrido[3,2-d]pyrimidin-6-yl)-5-ethynyl-6-fluoronaphthalen-2-ol] was tested. Which “GDP-KRAS G12D (ΔTmD, ° C.)” value [1] did it give?
A: Its value is 8.13 °C.

Q: And the “GppNHp-KRAS G12D (ΔTmD, ° C.)” value [2]?
A: The value was 4.72 °C.

Q: And the pIC50 [3]?
A: The pIC50 was 6.71.
